# Source: US12582617B2, “Methods for treating cancer” (RADIUS PHARMACEUTICALS, INC., priority 2015, dated 2026)
# Structures can show the parent of a compound that is named as a salt.
# Test: Phase 1 dose escalation study: safety, treatment related AEs
# Assay type: in vivo
# Method: The subjects were 40-75 years old with BMI of 18.0-30 kg/m^2. Subjects having evidence of clinically relevant pathology, increased risk of stroke or of history venous thromboembolic events, or use of concomitant medication less than 14 days prior to admission to clinical research center (paracetamol allowed up to 3 days prior) were excluded.
# The subjects were treated with placebo or at least one dose p.o., q.d. after a light breakfast for 7 days at dose levels of 200 mg, 500 mg, 750 mg and 1000 mg, respectively.
# [1] = 200 to 1000 mg p.o., q.d., 7 days
structure (smiles),measurement,setting,value
"CCNCCc1ccc(CN(CC)c2cc(OC)ccc2[C@@H]2CCc3cc(O)ccc3C2)cc1 [RAD1901, (6R)-6-(2-(N-(4-(2-(ethylamino)ethyl)benzyl)-N-ethylamino)-4-methoxyphenyl)-5,6,7,8-tetrahydronaphthalen-2-ol dihydrochloride]",Abdominal distension (treatment related AE),"750 mg, Gr3",0 n(%)
same,Abdominal pain (treatment related AE),"750 mg, Gr3",0 n(%)
same,Diarrhoea (treatment related AE),"750 mg, Gr3",0 n(%)
same,Dizziness (treatment related AE),"750 mg, Gr3",0 n(%)
same,Dyspepsia (treatment related AE),"750 mg, Gr3",0 n(%)
same,Dysphagia (treatment related AE),"750 mg, Gr3",0 n(%)
same,Flatulance (treatment related AE),"750 mg, Gr3",0 n(%)
same,Headache (treatment related AE),"750 mg, Gr3",0 n(%)
same,Hiccups (treatment related AE),"750 mg, Gr3",0 n(%)
same,Hot flush (treatment related AE),"750 mg, Gr3",0 n(%)
same,Myalgia (treatment related AE),"750 mg, Gr3",0 n(%)
same,Nausea (treatment related AE),"750 mg, Gr3",0 n(%)
same,Odynophagia (treatment related AE),"750 mg, Gr3",0 n(%)
same,Oesophageal pain (treatment related AE),"750 mg, Gr3",0 n(%)
same,Salivary hypersecretion (treatment related AE),"750 mg, Gr3",0 n(%)
same,Sensation of a foreign body (treatment related AE),"750 mg, Gr3",0 n(%)
same,Vomiting (treatment related AE),"750 mg, Gr3",0 n(%)
same,Abdominal discomfort (treatment related AE),"1000 mg, Gr1",0 n(%)
same,Abdominal distension (treatment related AE),"1000 mg, Gr1",2 (29) n(%)
same,Abdominal pain (treatment related AE),"1000 mg, Gr1",1 (14) n(%)
same,Diarrhoea (treatment related AE),"1000 mg, Gr1",3 (43) n(%)
same,Dizziness (treatment related AE),"1000 mg, Gr1",1 (14) n(%)
same,Dyspepsia (treatment related AE),"1000 mg, Gr1",1 (14) n(%)
same,Dysphagia (treatment related AE),"1000 mg, Gr1",0 n(%)
same,Flatulance (treatment related AE),"1000 mg, Gr1",0 n(%)
same,Headache (treatment related AE),"1000 mg, Gr1",2 (29) n(%)
same,Hiccups (treatment related AE),"1000 mg, Gr1",2 (29) n(%)
same,Hot flush (treatment related AE),"1000 mg, Gr1",1 (14) n(%)
same,Myalgia (treatment related AE),"1000 mg, Gr1",0 n(%)
same,Nausea (treatment related AE),"1000 mg, Gr1",4 (57) n(%)
same,Odynophagia (treatment related AE),"1000 mg, Gr1",1 (14) n(%)
same,Oesophageal pain (treatment related AE),"1000 mg, Gr1",1 (14) n(%)
same,Salivary hypersecretion (treatment related AE),"1000 mg, Gr1",2 (29) n(%)
same,Sensation of a foreign body (treatment related AE),"1000 mg, Gr1",4 (57) n(%)
same,Vomiting (treatment related AE),"1000 mg, Gr1",0 n(%)
same,Abdominal discomfort (treatment related AE),"1000 mg, Gr2",0 n(%)
same,Abdominal distension (treatment related AE),"1000 mg, Gr2",0 n(%)
same,Abdominal pain (treatment related AE),"1000 mg, Gr2",1 n(%)
same,Diarrhoea (treatment related AE),"1000 mg, Gr2",1 n(%)
same,Dizziness (treatment related AE),"1000 mg, Gr2",0 n(%)
same,Dyspepsia (treatment related AE),"1000 mg, Gr2",1 n(%)
same,Dysphagia (treatment related AE),"1000 mg, Gr2",0 n(%)
same,Flatulance (treatment related AE),"1000 mg, Gr2",0 n(%)
same,Headache (treatment related AE),"1000 mg, Gr2",0 n(%)
same,Hiccups (treatment related AE),"1000 mg, Gr2",0 n(%)
same,Hot flush (treatment related AE),"1000 mg, Gr2",0 n(%)
same,Myalgia (treatment related AE),"1000 mg, Gr2",0 n(%)
same,Nausea (treatment related AE),"1000 mg, Gr2",2 n(%)
same,Odynophagia (treatment related AE),"1000 mg, Gr2",1 n(%)
same,Oesophageal pain (treatment related AE),"1000 mg, Gr2",1 n(%)
same,Salivary hypersecretion (treatment related AE),"1000 mg, Gr2",0 n(%)
same,Sensation of a foreign body (treatment related AE),"1000 mg, Gr2",0 n(%)
same,Vomiting (treatment related AE),"1000 mg, Gr2",3 n(%)
same,Abdominal discomfort (treatment related AE),"1000 mg, Gr3",0 n(%)
same,Abdominal distension (treatment related AE),"1000 mg, Gr3",0 n(%)
same,Abdominal pain (treatment related AE),"1000 mg, Gr3",0 n(%)
same,Diarrhoea (treatment related AE),"1000 mg, Gr3",0 n(%)
same,Dizziness (treatment related AE),"1000 mg, Gr3",0 n(%)
same,Dyspepsia (treatment related AE),"1000 mg, Gr3",0 n(%)
same,Dysphagia (treatment related AE),"1000 mg, Gr3",0 n(%)
same,Flatulance (treatment related AE),"1000 mg, Gr3",0 n(%)
same,Headache (treatment related AE),"1000 mg, Gr3",0 n(%)
same,Hiccups (treatment related AE),"1000 mg, Gr3",0 n(%)
same,Hot flush (treatment related AE),"1000 mg, Gr3",0 n(%)
same,Myalgia (treatment related AE),"1000 mg, Gr3",0 n(%)
same,Nausea (treatment related AE),"1000 mg, Gr3",0 n(%)
same,Odynophagia (treatment related AE),"1000 mg, Gr3",0 n(%)
same,Oesophageal pain (treatment related AE),"1000 mg, Gr3",1 n(%)
same,Salivary hypersecretion (treatment related AE),"1000 mg, Gr3",0 n(%)
same,Sensation of a foreign body (treatment related AE),"1000 mg, Gr3",0 n(%)
same,Vomiting (treatment related AE),"1000 mg, Gr3",0 n(%)
same,dose limiting toxicities (in words),[1],No dose limiting toxicities (DLT) were observed
same,maximum tolerated dose (MTD) (in words),[1],not established
same,Abdominal discomfort (treatment related AE),"Total Active, Gr1",4 n(%)
same,Abdominal distension (treatment related AE),"Total Active, Gr1",5 n(%)
same,Abdominal pain (treatment related AE),"Total Active, Gr1",7 n(%)
same,Diarrhoea (treatment related AE),"Total Active, Gr1",6 n(%)
same,Dizziness (treatment related AE),"Total Active, Gr1",5 n(%)
same,Dyspepsia (treatment related AE),"Total Active, Gr1",13 n(%)
same,Dysphagia (treatment related AE),"Total Active, Gr1",4 n(%)
same,Flatulance (treatment related AE),"Total Active, Gr1",5 n(%)
same,Headache (treatment related AE),"Total Active, Gr1",9 n(%)
same,Hiccups (treatment related AE),"Total Active, Gr1",9 n(%)
same,Hot flush (treatment related AE),"Total Active, Gr1",11 n(%)
same,Myalgia (treatment related AE),"Total Active, Gr1",3 n(%)
same,Nausea (treatment related AE),"Total Active, Gr1",14 n(%)
same,Odynophagia (treatment related AE),"Total Active, Gr1",4 n(%)
same,Oesophageal pain (treatment related AE),"Total Active, Gr1",3 n(%)
same,Salivary hypersecretion (treatment related AE),"Total Active, Gr1",8 n(%)
same,Sensation of a foreign body (treatment related AE),"Total Active, Gr1",7 n(%)
same,Vomiting (treatment related AE),"Total Active, Gr1",3 n(%)
same,Abdominal discomfort (treatment related AE),"Total Active, Gr2",1 n(%)
same,Abdominal distension (treatment related AE),"Total Active, Gr2",1 n(%)
same,Abdominal pain (treatment related AE),"Total Active, Gr2",3 n(%)
same,Diarrhoea (treatment related AE),"Total Active, Gr2",1 n(%)
same,Dizziness (treatment related AE),"Total Active, Gr2",0 n(%)
same,Dyspepsia (treatment related AE),"Total Active, Gr2",3 n(%)
same,Dysphagia (treatment related AE),"Total Active, Gr2",3 n(%)
same,Flatulance (treatment related AE),"Total Active, Gr2",0 n(%)
same,Headache (treatment related AE),"Total Active, Gr2",1 n(%)
same,Hiccups (treatment related AE),"Total Active, Gr2",0 n(%)
same,Hot flush (treatment related AE),"Total Active, Gr2",0 n(%)
same,Myalgia (treatment related AE),"Total Active, Gr2",2 n(%)
same,Nausea (treatment related AE),"Total Active, Gr2",5 n(%)
same,Odynophagia (treatment related AE),"Total Active, Gr2",2 n(%)
same,Oesophageal pain (treatment related AE),"Total Active, Gr2",6 n(%)
same,Salivary hypersecretion (treatment related AE),"Total Active, Gr2",0 n(%)
same,Sensation of a foreign body (treatment related AE),"Total Active, Gr2",0 n(%)
same,Vomiting (treatment related AE),"Total Active, Gr2",10 n(%)
same,Abdominal discomfort (treatment related AE),"Total Active, Gr3",0 n(%)
same,Abdominal distension (treatment related AE),"Total Active, Gr3",0 n(%)
same,Abdominal pain (treatment related AE),"Total Active, Gr3",0 n(%)
same,Diarrhoea (treatment related AE),"Total Active, Gr3",0 n(%)
same,Dizziness (treatment related AE),"Total Active, Gr3",0 n(%)
same,Dyspepsia (treatment related AE),"Total Active, Gr3",0 n(%)
same,Dysphagia (treatment related AE),"Total Active, Gr3",0 n(%)
same,Flatulance (treatment related AE),"Total Active, Gr3",0 n(%)
same,Headache (treatment related AE),"Total Active, Gr3",0 n(%)
same,Hiccups (treatment related AE),"Total Active, Gr3",0 n(%)
same,Hot flush (treatment related AE),"Total Active, Gr3",0 n(%)
same,Myalgia (treatment related AE),"Total Active, Gr3",0 n(%)
same,Nausea (treatment related AE),"Total Active, Gr3",0 n(%)
same,Odynophagia (treatment related AE),"Total Active, Gr3",0 n(%)
same,Oesophageal pain (treatment related AE),"Total Active, Gr3",1 n(%)
same,Salivary hypersecretion (treatment related AE),"Total Active, Gr3",0 n(%)
same,Sensation of a foreign body (treatment related AE),"Total Active, Gr3",0 n(%)
same,Vomiting (treatment related AE),"Total Active, Gr3",1 n(%)
same,Abdominal discomfort (treatment related AE),"Total TEAE, All",5 (11)
same,Abdominal distension (treatment related AE),"Total TEAE, All",6 (14)
same,Abdominal pain (treatment related AE),"Total TEAE, All",10 (23)
same,Diarrhoea (treatment related AE),"Total TEAE, All",7 (16)
same,Dizziness (treatment related AE),"Total TEAE, All",5 (11)
same,Dyspepsia (treatment related AE),"Total TEAE, All",16 (36)
same,Dysphagia (treatment related AE),"Total TEAE, All",7 (16)
same,Flatulance (treatment related AE),"Total TEAE, All",5 (11)
same,Headache (treatment related AE),"Total TEAE, All",10 (23)
same,Hiccups (treatment related AE),"Total TEAE, All",9 (20)
same,Hot flush (treatment related AE),"Total TEAE, All",11 (25)
same,Myalgia (treatment related AE),"Total TEAE, All",5 (11)
same,Nausea (treatment related AE),"Total TEAE, All",19 (43)
same,Odynophagia (treatment related AE),"Total TEAE, All",6 (14)
same,Oesophageal pain (treatment related AE),"Total TEAE, All",10 (23)
same,Salivary hypersecretion (treatment related AE),"Total TEAE, All",8 (18)
same,Sensation of a foreign body (treatment related AE),"Total TEAE, All",7 (16)
same,Vomiting (treatment related AE),"Total TEAE, All",14 (32)
